According to PMC8617681 (Pharmaceuticals, 2021):
Entries after “also recorded” stand apart in the source; their conditions may differ.

Experiments:
[1] = Oral selpercatinib pharmacokinetics in mice, summarised over the studies; format: in vivo; details: FVB (wild-type), mouse, plasma, 10 mg/kg oral, average
Procedure: (§1) For the 4 h transporter experiments, tail-vein blood samples were collected at 0.125, 0.25, 0.5, 1, and 2 h time points after oral administration, respectively. For the CYP3A 8 h experiments, tail-vein blood sampling was performed at 0.25, 0.5, 1, 2, and 4 h, respectively. While for elacridar inhibition experiments, tail-vein blood samples were collected at 0.125, 0.25, 0.5, and 1 h time points after oral administration, respectively. Blood sample collection was performed using microvettes containing dipotassium EDTA. At the last time point in each experiment (2, 4 or 8 h), mice were anesthetized with 5% isoflurane and blood was collected by cardiac puncture. Blood samples were collected in Eppendorf tubes containing heparin as an anticoagulant. The mice were then sacrificed by cervical dislocation and brain, liver, kidney, lung, small intestine and testis were rapidly removed. Plasma was isolated from the blood by centrifugation at 9000× g for 6 min at 4 °C, and the plasma fraction was collected and stored at −30 °C until analysis. Organs were homogenized with 4% (w/v) bovine serum albumin and stored at −30 °C until analysis.
Pharmacokinetic parameters were calculated by noncompartmental methods using the PK solver software. The area under the plasma concentration–time curve (AUC) was calculated using the trapezoidal rule, without extrapolating to infinity. […]

[2] = 8 h pharmacokinetic study in wild-type, Cyp3a-/- and Cyp3aXAV mice; details: mouse, in vivo, po, 10 mg/kg; for concentration at 8 h / AUC(0-t) / Cmax / Tmax / SIC percentage of dose: female; for SIC percentage of dose: 8 h
Procedure: Many drugs and prodrugs are metabolized by CYP3A, which can therefore restrict their oral exposure.
(§2) Mice were housed and handled according to institutional guidelines complying with Dutch and EU legislation. All experimental animal protocols were evaluated and approved by the institutional animal care and use committee. Wild-type, Abcb1a/1b^-/-, Abcg2^-/-, Abcb1a/1b; Abcg2^-/-, Slco1a/1b^-/- male mice, and Cyp3a^-/- and Cyp3aXAV female mice, all of a >99% FVB genetic background, were used between 9 and 16 weeks of age. […] All experimental animal protocols (WP9450, 9669, 9760), including power calculations, designed under the nationally approved DEC/CCD project AVD301002016595, were evaluated and approved by the institutional animal care and use committee of The Netherlands Cancer Institute. […]
as §1
(§3) Pharmacokinetic parameters were calculated by noncompartmental methods using the PK solver software. The area under the plasma concentration–time curve (AUC) was calculated using the trapezoidal rule, without extrapolating to infinity. The peak plasma concentration (Cmax) and the time of maximum plasma concentration (Tmax) were estimated from the original (individual mouse) data. One-way analysis of variance (ANOVA) was used when multiple groups were compared and the Tukey post hoc correction was used to accommodate multiple testing. The two-sided unpaired Student’s t-test was used when treatments or differences between two specific groups were compared using the software GraphPad Prism 8 (GraphPad Software Inc., La Jolla, CA, USA). All the data were log-transformed before statistical tests were applied. Differences were considered statistically significant when p < 0.05. All data are presented as geometric mean ± SD.

[3] = 4 h pharmacokinetic pilot study in wild-type, Abcb1a/1b;Abcg2-/- and Slco1a/1b-/- mice; format: in vivo; details: for abnormal external behavior (acute toxicity): 10 mg/kg oral
Procedure: as §2, §1, §3

[4] = male, FVB (Abcb1a/1b;Abcg2-/-), mouse, in vivo, po, 10 mg/kg, 4 h
[5] = male, FVB (Slco1a/1b-/-), mouse, in vivo, po, 10 mg/kg, 4 h
[6] = male, FVB background, Abcb1a/1b;Abcg2-/-, mouse, in vivo, po, 10 mg/kg
[7] = male, FVB background, Slco1a/1b-/-, mouse, in vivo, po, 10 mg/kg
[8] = male, FVB background, wild-type, mouse, in vivo, po, 10 mg/kg

Work on COc1ccc(CN2C3CC2CN(c2ccc(-c4cc(OCC(C)(C)O)cn5ncc(C#N)c45)cn2)C3)cn1 [selpercatinib] yielded a Cmax [1] of ~8000 ng/mL, a concentration at 8 h ([2]; Cyp3a-/- (>99% FVB genetic background), CLiver) of 7900 ± 1270 ng/g and a concentration at 8 h ([2]; Cyp3a-/- (>99% FVB genetic background), CSI (small intestine tissue concentration)) of 6380 ± 930 ng/g. For the same compound, the concentration at 8 h ([2]; Cyp3a-/- (>99% FVB genetic background), Cbrain) was 86.2 ± 24.2 ng/g, the concentration at 8 h ([2]; Cyp3aXAV (>99% FVB genetic background), CLiver) was 4390 ± 755 ng/g and the concentration at 8 h ([2]; Cyp3aXAV (>99% FVB genetic background), CSI (small intestine tissue concentration)) was 5030 ± 347 ng/g. For the same compound, the AUC(0-t) ([2]; FVB, Cyp3a-/-) was 72200 ng·h/mL, the Cmax ([2]; FVB, Cyp3a-/-) was 12300 ng/mL and the Tmax ([2]; FVB, Cyp3a-/-) was 1.4 ± 1.3 h. For the same compound, the “SIC percentage of dose” value ([2]; FVB, Cyp3a-/-) was 1.4 ± 0.6 %, the concentration at 8 h ([2]; FVB, Cyp3a-/-, CSIC (small intestine contents concentration)) was 44900 ng/g and the AUC(0-t) ([2]; FVB, wild-type) was 52300 ng·h/mL. For the same compound, the Cmax ([2]; FVB, wild-type) was 8560 ± 1300 ng/mL, the Tmax ([2]; FVB, wild-type) was 1.5 ± 1.3 h and the “SIC percentage of dose” value ([2]; FVB, wild-type) was 2.5 ± 0.9%. It also gave a concentration at 8 h ([2]; FVB, wild-type, CSIC (small intestine contents concentration)) of 83900 ng/g, a concentration at 8 h ([2]; FVB, wild-type, Cbrain) of 82.4 ± 16.8 ng/g and an AUC(0-t) [2] of 45800 ng·h/mL. For the same compound, the Cmax [2] was 9480 ± 548 ng/mL, the Tmax [2] was 0.29 ± 0.1 h and the “SIC percentage of dose” value [2] was 1.5 ± 0.5%. For the same compound, the concentration at 8 h ([2]; CSIC (small intestine contents concentration)) was 48500 ng/g, the concentration at 8 h ([2]; Cbrain) was 51 ± 15.2 ng/g and the concentration at 8 h ([2]; wild-type (>99% FVB genetic background), CLiver) was 8260 ± 1620 ng/g. For the same compound, the concentration at 8 h ([2]; wild-type (>99% FVB genetic background), CSI (small intestine tissue concentration)) was 7300 ± 1120 ng/g, the “abnormal external behavior (acute toxicity)” value (from here on “abnormal external behavior”) [2] was “did not observe any abnormal external behavior” and the “abnormal external behavior” value ([3]; Abcb1a/1b;Abcg2-/- mice) was “did not observe any abnormal external behavior”. For the same compound, the “abnormal external behavior” value ([3]; Slco1a/1b-/- mice, 10 mg/kg) was “did not show any abnormal external behavior; also recorded: did not observe any abnormal external behavior”, the “CSIC (small intestine contents concentration)” value [3, 4] was 34,929 ± 16,659 ng/g and the Cliver [3, 4] was 19,077 ± 2696 ng/g. For the same compound, the concentration at 4 h ([3]; male, FVB (Abcb1a/1b;Abcg2-/-), mouse, in vivo, po, 10 mg/kg, CSIC (small intestine contents concentration)) was 34900 ng/g, the concentration at 4 h ([3]; male, FVB (Abcb1a/1b;Abcg2-/-), mouse, in vivo, po, 10 mg/kg, Cbrain) was 3450 ng/g and the concentration at 4 h ([3]; male, FVB (Abcb1a/1b;Abcg2-/-), mouse, in vivo, po, 10 mg/kg, Cliver) was 19100 ng/g. For the same compound, the concentration at 4 h ([3]; male, FVB (Abcb1a/1b;Abcg2-/-), mouse, in vivo, po, 10 mg/kg, Ctestis) was 5730 ng/g, the Cbrain [3, 5] was 278 ± 42 ng/g and the Cliver [3, 5] was 19,916 ± 3174 ng/g. The concentration at 4 h ([3]; male, FVB (Slco1a/1b-/-), mouse, in vivo, po, 10 mg/kg, Cbrain) was 278 ± 42 ng/g, the concentration at 4 h ([3]; male, FVB (Slco1a/1b-/-), mouse, in vivo, po, 10 mg/kg, Cliver) was 19900 ng/g and the concentration at 4 h ([3]; male, FVB (Slco1a/1b-/-), mouse, in vivo, po, 10 mg/kg, Ctestis) was 1120 ng/g. For the same compound, the Cliver ([3]; male, FVB (wild-type), mouse, in vivo, po, 10 mg/kg, 4 h) was 17,593 ± 3471 ng/g, the concentration at 4 h ([3]; male, FVB (wild-type), mouse, in vivo, po, 10 mg/kg, Cliver) was 17600 ng/g and the AUC(0-t) [3, 6] was 30200 ng·h/mL. For the same compound, the Cmax [3, 6] was 8580 ± 2160 ng/mL, the Tmax [3, 6] was 1.6 ± 1.2 h and the AUC(0-t) [3, 7] was 36200 ng·h/mL. For the same compound, the Cmax [3, 7] was 11600 ng/mL, the Tmax [3, 7] was 1.7 ± 0.52 h and the concentration at 4 h ([3]; male, FVB background, Slco1a/1b-/-, mouse, in vivo, po, 10 mg/kg, CSIC (small intestine contents concentration)) was 141000 ng/g. It also gave an AUC(0-t) [3, 8] of 26600 ng·h/mL, a Cmax [3, 8] of 7860 ± 1810 ng/mL and a Tmax [3, 8] of 1.8 ± 1.2 h. It also gave a concentration at 4 h ([3]; male, FVB background, wild-type, mouse, in vivo, po, 10 mg/kg, CSIC (small intestine contents concentration)) of 91100 ng/g, a concentration at 4 h ([3]; male, FVB background, wild-type, mouse, in vivo, po, 10 mg/kg, Cbrain) of 186 ± 23 ng/g and a concentration at 4 h ([3]; male, FVB background, wild-type, mouse, in vivo, po, 10 mg/kg, Ctestis) of 730 ± 103 ng/g.
